Data published in patent publication US20020037844A1, “SYNTHETIC PEPTIDE FOR TREATMENT OF AUTOIMMUNE ARTHRITIS” (priority 1993, published 2002).
Entries after “also recorded” stand apart in the source; their conditions may differ.

Key:
[1] = tested on: CII-primed T cells; test: T cell stimulation assay, γ-IFN production by CII-primed spleen and lymph node cells; format: cell-based, mice; conditions: CII-primed T cells cultured with 100 μm of antigen; FIG. 1
Procedure: Nowarck H., E. Hahn, R. Timple, 1976, “Requirements for T Cells in the Antibody Response of Mice to Calf Skin Collagen,” J. Immunol. 30:29. Each peptide was cultured with pooled spleen and lymph node cells from CII-immunized mice, and culture supernatant fluids were tested for the presence of γ-interferon as an indicator of T cell stimulation. T cell hybridomas were established by polyethylene glycol-induced fusion of lymph node cells with the T cell receptor α^−/β^−thymoma line, BW5147. White, M., M. Blackman, J. Bill, J. Kappler, P. Marrack, D. P. Gold, and W. Born, 1989, Two Better Cell Lines for Making Hybridomas Expressing Specific T Cell Receptors. J. Immunol. 143:1822. […]
(§1) T cell stimulation assays were performed in 96 well plates and the degree of stimulation was quantitated by measurements of γ-IFN production. […] Supernatants were collected from 72 to 120 hours later and either […] analyzed for γ-IFN production immediately or stored at −70° C. prior to analysis. Quantitative measurement of murine gamma interferon was done using a solid-phase enzyme-linked immunosorbent assay (Amgen Biologicals, Thousand Oaks, Calif.). […] The absorbance was measured at 405 nm with a spectrophotometer, and a standard curve was obtained by plotting the absorbance versus the corresponding concentration of the standards. Units of γ-interferon were calculated based on NIH standard number Gg02-901-533. […]

[2] = target: T1, I-A^q on the surface of antigen presenting cells (Mus musculus, UniProt P04227+P06342); test: Competitive antigen presentation assay: pulsed APC presented to CII 245-270 specific T-cell hybridomas, IL-2 titer; format: cell-based, DBA/1 mice; conditions: for Binding to I-A^q / competition for presentation of the wild type peptide to T-cell hybridomas: conclusion from Table II
T1 construct: containing 4×10^5 syngenic spleen cells and 10^5 T-hybridoma cells; from tissue; host or cells: spleen cells syngeneic to DBA/1 mice (H-2q), used as antigen presenting cells
Procedure: Lymph node cells were obtained from DBA/1 mice immunized with α1(II)-CB11 emulsified with complete Freund's adjuvant and cultured in vitro with α1(II)-CB11 for five days, and in the presence of IL-2 for three days before fusion. Hybridoma cells reactive to CB11 [CII 245-270] and CII were cloned by limiting dilution to 0.3 cells/well. Antigen presentation experiments were performed in 96 well […] plates in a total volume of 0.3 ml containing 4×10^5 syngenic spleen cells and 10^5 T-hybridoma cells. For competitive inhibition assays, spleen cells were pulsed with various ratios of inhibitor to indicator peptide and washed several times prior to addition to the antigen presentation culture. Cell cultures were maintained at 37° C. in 5% humidified CO2 for 20 to 24 hours, after which seven 80 μl two-fold serial dilutions were made for determination of IL-2 titers. Four thousand HT-2 cells were added to each supernatant dilution, and after 16 to 20 hours HT-2 cell viability was evaluated by visual inspection. IL-2 titers were determined by the reciprocal of the highest two-fold serial dilution maintaining 90% viability of the HT-2 cells. Results are presented as units of IL-2 per ml of undiluted supernatant as described by Kapper et al. Kappler, J., J. White, D. Wegman, E. Mustain, and P. Marrack, 1982, Antigen Presentation by Ia^+B Cell Hybridomas to H-2 Restricted T Cell Hybridomas. Proc. Natl. Acad. Sci. USA 79:3604. The disclosure of this article is incorporated by reference.
The inability of some analog peptides to stimulate T cells likely occurs either because of disruption of peptide binding to the I-A^q molecule or the inability of the T cell receptor to recognize the peptide. In order to determine whether the analog peptides could bind to the class II molecule, competitive antigen presentation assays were performed. Antigen presenting cells (APC) were pulsed with various molar ratios of CII 245-270 and an analog peptide, and tested for their ability to stimulate CII 245-270 specific T cell hybridomas.

[3] = tested on: CII-primed, bulk T cells; test: Inhibition of antigen presentation to CII-primed bulk T cells (co-culture); format: cell-based, DBA/1 mice; conditions: analog co-cultured with CII 245-270 or native CII at various ratios; FIG. 2
Procedure: as §1, with “production. Myers, L. K., K. Terato, J. M. Seyer, J. M. Stuart, and A. H. Kang, 1992, Characterization of a Tolerogenic T Cell Epitope of Type II Collagen and its Relevance to Collagen-Induced Arthritis. J. Immunol. 149:1439. The disclosure of this article is incorporated by reference. Spleens and lymph nodes from mice immunized with CII 14 to 21 days prior were individually minced into single cell suspensions in Hank's Balanced Salt Solution (BSS) and washed 3 times.” for “production.”

[4] = tested on: collagen induced arthritis (CIA) in DBA/1 mice; test: Collagen induced arthritis, simultaneous immunization with CII and peptide; format: in vivo; conditions: for Development / incidence of arthritis, in words: co-injected with native CII, molar ratio CII:peptide 1:480
[5] = tested on: antibodies reactive with type II collagen; test: Serum antibodies to CII by ELISA in co-immunized mice; format: in vivo, DBA/1 mice; conditions: for Antibodies to CII: serum four weeks after immunization, mean
Procedure: (§2) Mice were bled at four weeks after immunization and the serum was tested for antibodies reactive with type II collagen by enzyme-linked immunoassay (ELISA) described in Stuart, J. M., A. S. Townes, and A. H. Kang. 1982. Nature and Specificity of the Immune Response to Collagen in Type II Collagen-Induced Arthritis in Mice, J. Clin. Invest. 69:673. The disclosure of this article is incorporated by reference An anti-CII serum standard was used in each assay. A standard curve was derived by computer analysis using a 4 parameter logistic curve. Results are reported as units of activity, derived by comparison of test sera with the curve derived from the anti-CII standard which was arbitrarily defined as having 50 units of activity. Sera from mice were tested individually, and means were calculated for each experimental group.
In order to assess the effects of co-immunizing mice with both CII 245-270[s260, 261, 263] and CII, the mean antibody titers to native CII were measured for each immunization group in Table III, four weeks after immunization (Table IV).

[6] = tested on: collagen induced arthritis in neonatally tolerized mice; test: Neonatal tolerance: peptide given at birth, CII challenge at eight weeks, arthritis observed; format: in vivo; conditions: administered to neonatal mice prior to immunization with CII
Text: To measure the incidence of arthritis in immunized mice, individuals examined and scored each of the forepaws and hind paws on a scale of 0-4 as described in Wooley, P. H., H. W. Luthra, J. M. Stuart and C. S. David. 1981. “Type 11 Collagen-induced Arthritis in Mice”. I. Major Histocompatibility Complex (I region) Linkage and Antibody Correlates. J. Exp. Med. 154:688. This article is incorporated herein by reference. There were two separate examiners, one of whom was unaware of the identity of the treatment groups. Each mouse was scored three times a week beginning three weeks post immunization and continuing through 8 weeks post immunization. The incidence of arthritis (number of animals with one or more arthritic limbs) was reported at 6 weeks post immunization, the time point at which the control group reached its peak of disease. The incidence of arthritis in various groups of mice was compared using Fisher's Exact Test. Student's T test was used to compare means of antibody responses to CII.
The foregoing data support the hypothesis that analog peptide CII 245-270[s260, 261, 263] competes for binding to I-A^q. […] Synthetic peptides were solubilized directly in phosphate buffered saline (PBS) at a concentration of 1 mg/ml. […]

[7] = tested on: antibodies to CII; test: Serum antibodies to CII by ELISA in neonatally treated mice; format: in vivo; conditions: 100 μg antigen in IFA intraperitoneally within 24 hours of birth; serum four weeks after immunization; mean titer
Procedure: as §2
The foregoing data support the hypothesis that analog peptide CII 245-270[s260, 261, 263] competes for binding to I-A^q. […] Synthetic peptides were solubilized directly in phosphate buffered saline (PBS) at a concentration of 1 mg/ml. Neonatal mice were tolerized using a protocol described by Gammon et al.^21 in which antigen emulsified with incomplete Freund's adjuvant was injected intraperitoneally. Gammon, Dunn, Shastri, Oki, Wilbur, Sercarz, 1986, Neonatal T Cell Tolerance to Minimal Immunogenic Peptides is Caused by Clonal Inactivation, Nature (Lond) 319:413. […]

[8] = tested on: collagen induced arthritis in neonatally tolerized mice; conditions: Myers et al. 1989, J. Exp. Med. 170:1999; cited from earlier work

CII 245-270 [s266, 267, 269]: analog of CII 245-270 with D at 266, T at 267, A at 269 (type I collagen based substitutions) (PTGPLGPKGQTGELGIAGFKGDTGAK)
T cell stimulation (γ-interferon) compared to the wild type peptide CII 245-270 [1]: did not respond | Binding to I-A^q / competition for presentation of the wild type peptide to T-cell hybridomas [2]: did not compete | T cell responses to CII 245-270 and CII [3]: no significant effect

Pro - Thr - Gly - Pro - Leu - Gly - Pro - Lys - Gly - Gln - Thr - Gly - Glx - Leu - Gly - Ala - 4Hyp - Gly - Asn - Lys - Gly - Glx - Gln - Gly - Pro - Lys [CII 245-270 [s260, 261, 263], analog of CII 245-270 with alanine at 260, hydroxyproline at 261, asparagine at 263]
T cell stimulation (γ-interferon) compared to the wild type peptide CII 245-270 [1]: did not respond | IL-2 ([2]; T-cell hybrid 2qCII92.33, molar ratio competitor:CII 245-270 1.6:1): 160 U/ml | IL-2 ([2]; T-cell hybrid 2qCII92.33, molar ratio competitor:CII 245-270 3.2:1): 80 U/ml | IL-2 ([2]; T-cell hybrid 2qCII92.33, molar ratio competitor:CII 245-270 6.5:1): 20 U/ml | IL-2 ([2]; T-cell hybrid 2qCII92.33, molar ratio competitor:CII 245-270 13:1): — (A “—” indicates less than 20 U/ml of IL-2 detected) | IL-2 ([2]; T-cell hybrid qCII85.33, molar ratio competitor:CII 245-270 1.6:1): 640 U/ml | IL-2 ([2]; T-cell hybrid qCII85.33, molar ratio competitor:CII 245-270 3.2:1): 320 U/ml | IL-2 ([2]; T-cell hybrid qCII85.33, molar ratio competitor:CII 245-270 6.5:1): 40 U/ml | IL-2 ([2]; T-cell hybrid qCII85.33, molar ratio competitor:CII 245-270 13:1): —* (A “—” indicates less than 20 U/ml of IL-2 detected) | IL-2 ([2]; T-cell hybrid qCII98.10, molar ratio competitor:CII 245-270 1.6:1): 160 U/ml | IL-2 ([2]; T-cell hybrid qCII98.10, molar ratio competitor:CII 245-270 3.2:1): 80 U/ml | IL-2 ([2]; T-cell hybrid qCII98.10, molar ratio competitor:CII 245-270 6.5:1): 40 U/ml | IL-2 ([2]; T-cell hybrid qCII98.10, molar ratio competitor:CII 245-270 13:1): — (A “—” indicates less than 20 U/ml of IL-2 detected) | Ability of competitively pulsed APC to stimulate the T-cell hybridomas ([2]; analog:CII 245-270 molar ratios of 6:1 or greater): greatly reduced | Binding to I-A^q / competition for presentation of the wild type peptide to T-cell hybridomas [2]: capable of binding to I-A^q | T cell responses to CII 245-270 and CII [3]: significantly decreased responses to both CII 245-270 and CII in a dose dependent manner | Incidence of arthritis and number of arthritic limbs, in words ([4]; co-immunized with CII at various molar ratios): dose-dependent decrease | Development / incidence of arthritis, in words [4]: arthritis did not develop | Immune responses to CII in vivo as well as in vitro, in words ([5]; co-immunization with CII): significantly down regulated | Antibodies to CII ([5]; molar ratio CII:peptide 1:160): 53 ± 25 units of activity | Antibodies to CII ([5]; molar ratio CII:peptide 1:320): 34 ± 22 units of activity | Antibodies to CII ([5]; molar ratio CII:peptide 1:480): 17 ± 3 units of activity | Effectiveness as neonatal tolerogen, in words ([6]; 261, 263]): ineffective as a CII tolergen; also recorded: very poor tolerogen | Antibodies to CII [7]: 55.6 ± 19

Pro - Thr - Gly - Pro - Leu - Gly - Pro - Lys - Gly - Gin - Thr - Gly - Glx - Leu - Gly - Ile - Ala - Gly - Phe - Lys - Gly - Glx - Gln - Gly - Pro - Lys [CII 245-270, reference compound]
Development / incidence of arthritis, in words [4]: did not alter the incidence of disease | Antibodies to CII ([5]; molar ratio CII:peptide 1:480): 54 ± 25 units of activity | Effectiveness as neonatal tolerogen, in words [6]: effective tolerogen | Antibodies to CII [7]: 18.5 ± 8 | Suppression of arthritis as neonatal tolerogen [8]: suppresses arthritis
